Laboratory results reported in US10214502B2, “Method of inhibiting apolipoprotein-E expression while increasing expression of at least one of LDL-receptor protein or AbcA1 protein comprising administering a small compound” (California State University, Fresno, priority 2016, dated 2019).

Columns and labels:
LDLR = test: SDS-PAGE/Western blot of LDLR expression in E3 astrocyte cells; format: cell-based, mouse; conditions: 10 μM, 24 hrs, Western blot, FIGS. 6 and 7
Experimental: Experiments were set up to test whether the claimed compounds increase LDLR expression in cortical astrocyte cells. The experiments involved treating mouse cortical astrocyte cells (E3 astrocyte cells) with the claimed compounds at 10 μM concentration for an incubation time of 24 hrs. DMSO solvent was used as a negative control, because the compounds were dissolved in DMSO when applied to the cells.
(§1) Western blot protocol and analysis was used to determine the LDLR levels in the E3 astrocyte cells. The western blot, otherwise known as a protein immunoblot, is a widely used analytical technique used to detect specific proteins in a cell culture or tissue sample. It uses gel electrophoresis to separate proteins by 3-D structure or denatured proteins by the length of the polypeptide. The proteins are then transferred to a membrane (typically nitrocellulose or PVDF), where they are stained with antibodies specific to the target protein. […] FIGS. 6 and 7 show gel images showing the effects the claimed compounds have on the target proteins. The protein bands show the presence and amount of each target protein present in the media from treated cells (compound numbers shown in the column headers).
(§2) In this case, after the 24-hour culture period, the treated cell media from cells treated with each respective compound were run by electrophoresis on polyacrylamide gel containing sodium dodecyl sulfate (SDS). The proteins from the SDS-PAGE process were then transferred to a nitrocellulose […] and stained.
(§3) FIGS. 6 and 7 show the presence of the following proteins in mouse E3 astrocyte cells: AbcA1, LDLR, ApoE3, and GAPDH. The GAPDH protein serves as the loading control protein for the western blot analysis. For each of the claimed compounds, FIGS. 6 and 7 show three samples run to determine the presence and amount of each indicated protein. The three samples for each treatment compound are indicated by the line under the compound number—the line stretches across three columns of protein bands.
(§4) The E3 astrocyte cells (1.6×10^4 cells/96-well plate) were grown for 1 day in RPMI, followed by a 24 hour equilibration in serum-free Opti-MEM (Life Technologies). Treatments were carried out in triplicate with […] of fresh Opti-MEM containing 10 μM of compound or vehicle (0.1% DMSO) for 24 hours. After the incubation time, the cellular media was collected as samples.
(§5) The collected samples were prepared for SDS-PAGE and western blot analysis by centrifuging and then extracting the protein by TCA-precipitation. The extracted protein was then resuspended in a Tris buffer.
(§6) After incubation and collection, the samples were run on a SDS-polyacrylamide gel (10% SDS). The SDS-polyacrylamide gel comprises the following:
(§7) Each sample was prepared to run on the SDS-polyacrylamide gel. About 20 μL of each sample was prepared to be run in the gel. The samples were prepared comprising the following:
(§8) The SDS-PAGE process was run with SDS-PAGE running buffer (Tris base, glycine, and 10% SDS) at 150 V until the dye front reached the bottom of the gel.
(§9) For the western blot portion of the analysis, the separated protein bands in the gel are then transferred to a nitrocellulose membrane by methods well known in the art. Following the western blot transfer, the blot is rinsed several times with dH2O to remove the salts. After blocking unreacted sites on the nitrocellulose membrane, all protein bands are stained with 0.5% Ponceau S (0.5 g Ponceau S, 1 ml Glacial HAc, 99 ml dH2O) and the target protein antibody.
(§10) The antibodies used for staining AbcA1 were obtained from Novus (NB100-2068). The antibodies used for staining LDLR were obtained from MBL International (JM-3839). The antibodies used for staining intracellular apoE were obtained from Meridian Life Science (K74180B). The antibodies used for staining GAPDH were obtained from Santa Cruz (sc-25778).

apoE3 = test: ELISA of apoE3 levels in conditioned media of compound-treated mouse cortical astrocyte cells; format: cell-based; conditions: 10 μM compound, 24 hours, normalized to cell protein, relative to DMSO treated cells
Experimental: ApoE inhibition can be readily determined by any one of several assays and techniques known to those of ordinary skill in the art, including the enzyme-linked immunosorbant assay (ELISA). In the experimental results shown in Table 2 and FIG. 5, the ELISA assay was carried out on cortical astrocyte cells from mice. Astrocyte cells produce apoE, LDLR and AbcA1 proteins.
The experiments involved treating mouse cortical astrocyte cells with the claimed compounds at 10 μM concentration for an incubation time of 24 hrs. DMSO solvent was used as a negative control, because the compounds were dissolved in DMSO when applied to the cells.
The ELISA technique involves immobilizing an apoE-specific capture antibody to a 96-well plate, addition of sample (conditioned medium from mouse cortical astrocyte cells treated with the compound for 24 hours), and detection of the bound apoE using a second apoE-specific biotinylated antibody and streptavidin-HRP.
The Mabtech ELISA kit detects the presence of the three apoE isoforms: apoE2, apoE3, and apoE4.
To obtain the data shown in Table 2 and FIG. 5, the mouse cortical astrocyte cells were maintained in DMEM medium (Invitrogen) supplemented with 10 mM HEPES, 1 mM sodium pyruvate, 4.5 g/L glucose, 1% penicillin/streptomycin, and 10% fetal bovine growth serum (Invitrogen) at 37° C., with 5% CO2.
The cells (6×10^4 cells/24-well plate) were grown for 1 day in RPMI, followed by a 24 hour equilibration in serum-free Opti-MEM (Life Technologies). Treatments were carried out in triplicate with […] of fresh Opti-MEM containing 10 μM of compound or vehicle (0.1% DMSO) for 24 hours. […] ApoE concentration in the sample was calculated based on a standard curve derived using known amounts of purified apoE (from Biodesign).
The protein levels in the cells in the 24-well plates were measured using BCA Protein Assay Kit (from Pierce) and used to normalize the data. […] Sample apoE3 concentrations were represented relative to the DMSO treated cells.
The bars in FIG. 5 reflect the respective mean level apoE3 in the media for each compound with an indication of one […].

AbcA1 = test: SDS-PAGE/Western blot of AbcA1 expression in E3 astrocyte cells; format: cell-based, mouse; conditions: 10 μM, 24 hrs, Western blot, FIGS. 6 and 7
Excerpt: as §1, §2, §3
AbcA1 protein plays a key role in regulating cholesterol in biological systems and therefore affects amyloid beta plaque formation. The goal of the biological screen (results shown in FIGS. 6 and 7) was to find compounds that prevent amyloid beta (Aβ) plaque formation, one of the deleterious causes of Alzheimer's Disease.
as §4, §5, §6, §7, §8, §9, §10

Row | Structure (SMILES) | LDLR expression (amount of LDLR protein) compared to the DMSO control (LDLR) | ApoE3 Levels in Cell Media, Average of Three Tests (apoE3) | ApoE3 Levels in Cell Media, Test 1 (apoE3) | ApoE3 Levels in Cell Media, Test 2 (apoE3) | ApoE3 Levels in Cell Media, Test 3 (apoE3) | AbcA1 expression compared to the DMSO control (AbcA1)
1 | O=S(=O)(c1ccc2ccccc2c1)N1CCCCC1 [Compound 97] | increase | 86.86 % of the DMSO control | 90.22 % of the DMSO control | 90.28 % of the DMSO control | 80.08 % of the DMSO control | –
2 | O=C(Nc1ccccc1)c1ccc2ccccc2c1 [Compound 98] | – | 76.25 % of the DMSO control | 74.22 % of the DMSO control | 79 % of the DMSO control | 75.5362 % of the DMSO control | decrease
3 | CC(C)CNC(=O)c1ccc2ccccc2c1 [Compound 89] | increase | 129.8502 % of the DMSO control | 110.4906 % of the DMSO control | 131.1414 % of the DMSO control | 147.9187 % of the DMSO control | –
4 | CC(NS(=O)(=O)c1ccc(-c2ccccc2)cc1)c1ccccc1 (stereo not drawn) [Compound 137] | increase | 88.63 % of the DMSO control | 79.41 % of the DMSO control | 86.65 % of the DMSO control | 99.83 % of the DMSO control | –
5 | CCN(CC)S(=O)(=O)c1ccc2ccccc2c1 [Compound 129] | – | 81.14 % of the DMSO control | 80.4063 % of the DMSO control | 82.82 % of the DMSO control | 80.19 % of the DMSO control | decrease
6 | O=S(=O)(NC1CCCCC1)c1ccc(-c2ccccc2)cc1 [Compound 136] | increase | 89.73 % of the DMSO control | 89.58 % of the DMSO control | 91.2 % of the DMSO control | 88.41 % of the DMSO control | –
7 | O=S(=O)(c1ccc2ccccc2c1)N1CCOCC1 [Compound 95] | increase | 96.13 % of the DMSO control | 86.87 % of the DMSO control | 92.02 % of the DMSO control | 109.5 % of the DMSO control | –
8 | CC(C)CNS(=O)(=O)c1ccc(-c2ccccc2)cc1 [Compound 133] | – | 73.18 % of the DMSO control | 81.61 % of the DMSO control | 72.54 % of the DMSO control | 65.4 % of the DMSO control | decrease
9 | COc1cccc(NC(=O)c2ccc3ccccc3c2)c1 [Compound 100] | – | 84.98 % of the DMSO control | 91.06 % of the DMSO control | 75.01 % of the DMSO control | 88.88 % of the DMSO control | –
10 | O=S(=O)(Nc1ccccc1)c1ccc2ccccc2c1 [Compound 102] | – | 97.14 % of the DMSO control | 95.99 % of the DMSO control | 98.8 % of the DMSO control | 96.62 % of the DMSO control | –
11 | O=C(c1ccc2ccccc2c1)N1CCCC1 [Compound 91] | – | 104.6561 % of the DMSO control | 126.8225 % of the DMSO control | 87.2 % of the DMSO control | 99.94 % of the DMSO control | –
12 | O=S(=O)(c1ccc2ccccc2c1)N1CCCC1 [Compound 96] | increase | 118.6531 % of the DMSO control | 104.9618 % of the DMSO control | 132.594 % of the DMSO control | 118.4035 % of the DMSO control | –
13 | CCC(C)NC(=O)c1ccc2ccccc2c1 (stereo not drawn) [Compound 88, naphthalene-2-carboxylic acid sec-butylamide] | increase | 100.678 % of the DMSO control | 104.1856 % of the DMSO control | 95.94 % of the DMSO control | 101.9038 % of the DMSO control | –
14 | O=S(=O)(NC1CCCCC1)c1cccc2ccccc12 [Compound 124] | – | 95.1 % of the DMSO control | 96.7646 % of the DMSO control | 90.1191 % of the DMSO control | 98.42 % of the DMSO control | –
